Data on two substances can be found in patent US7314968B2, “Transgenic fish and β-catenin signaling pathway model” (University of Washington, priority 2002, dated 2008).

In one data set the test system is lef1. Put plainly: lef1 morpholino injection into one-cell TOPdGFP transgenic zebrafish embryos, in situ hybridization and phenotype. The class given is in vivo. The method, then: (§1) In Situ Hybridizations: In situ hybridization was performed as described previously (Oxtoby and Jowett, 1993). The GFP probe was made by antisense transcription of TOPdGFP, using a T7 promoter present in the construct. The Probe for hdl was made from a full-length clone isolated in our laboratory, subcloned into pCS2+. Probes for pax2.1 (Krauss et al., 1991), tbx6 (Hug et al., 1997), and lef1 (Dorsky et al., 1999) were made as described previously. Images were taken with a Kodak DC290 digital camera and processed with Adobe Photoshop 5.0.
(§2) Morpholino Injections: Morpholino antisense oligonucleotides targeted to lef1 and hdl were obtained from Gene Tools (Corvallis, Oreg.). lef1 MO sequence: 5′- […]-3′ (SE ID NO:3); hdl MO sequence: 5′- […]-3(SEQ ID NO:4).
(§3) Approximately 1 ng of the morpholinos was injected into one-cell homozygous transgenic embryos that were fixed for in situ hybrid-ization at appropriate stages. Injections of control morpholinos produced no effect on TOPdGFP expression.

The subject of the next data set is hdl. Put plainly: hdl morpholino injection into one-cell TOPdGFP transgenic zebrafish embryos, in situ hybridization and phenotype. The class given is in vivo. Here is the method:
as §1, §2, §3

As to “lef1 morpholino: Morpholino antisense oligonucleotide targeted to zebrafish lef1, 5′- CTCCTCCACCTGACAACTGCGGCAT-3′ (SEQ ID NO:3), from Gene Tools (all phosphorodiamidate morpholino (PMO))”, the embryo phenotype result in the data set with lef1 (36 hpf) is “tail truncations and loss of paraxial mesoderm, but normal head development”. Further, in the data set on lef1 (bud stage), the “TOPdGFP expression in the embryo” value is given as “striking decrease”; the “expression of spt and tbx6” value is on record as “decreased expression”; the pax2 expression result is recorded as “no effect”.
For the substance “hdl morpholino: Morpholino antisense oligonucleotide targeted to zebrafish hdl, 5′- CTCCGTTTAACTGAGGCATGTTGGC-3 (SEQ ID NO:4), from Gene Tools (all phosphorodiamidate morpholino (PMO))”, in the data set with hdl (bud stage), the “expression of midbrain marker pax2” value is on record as “anterior expansion”; the “expression of ventrolateral mesoderm markers spt and tbx6” value is on record as “no effect”; the “posterior GFP expression” value is “no effect”. Moreover, the embryo phenotype result with hdl (injection at the one-cell stage, 36 hpf) is given as “phenotype indistinguishable from hdl mutant embryos”. Also, the “anterior TOPdGFP expression” value in the data set with hdl (shield stage or bud stage) is “does not expand”.
